Test results from patent US6358978B1, “Substituted benzimidazoles” (Aventis Pharma Deutschland GmbH, priority 1999, dated 2002).
Structures can show the parent of a compound that is named as a salt.

How the values were obtained:
IκB kinase = target: T1, IκB kinase (Homo sapiens, UniProt O14920+O15111); assay: IκB kinase filter test; type: biochemical; conditions: kinase purified from HeLa cell extracts; 50 μM ATP; substrate peptide 20 μM
T1 construct: The kinase was purified from HeLa cell extracts; endogenous in cells; host or cells: HeLa cell extracts
T1 sequence (O14920 whole entry): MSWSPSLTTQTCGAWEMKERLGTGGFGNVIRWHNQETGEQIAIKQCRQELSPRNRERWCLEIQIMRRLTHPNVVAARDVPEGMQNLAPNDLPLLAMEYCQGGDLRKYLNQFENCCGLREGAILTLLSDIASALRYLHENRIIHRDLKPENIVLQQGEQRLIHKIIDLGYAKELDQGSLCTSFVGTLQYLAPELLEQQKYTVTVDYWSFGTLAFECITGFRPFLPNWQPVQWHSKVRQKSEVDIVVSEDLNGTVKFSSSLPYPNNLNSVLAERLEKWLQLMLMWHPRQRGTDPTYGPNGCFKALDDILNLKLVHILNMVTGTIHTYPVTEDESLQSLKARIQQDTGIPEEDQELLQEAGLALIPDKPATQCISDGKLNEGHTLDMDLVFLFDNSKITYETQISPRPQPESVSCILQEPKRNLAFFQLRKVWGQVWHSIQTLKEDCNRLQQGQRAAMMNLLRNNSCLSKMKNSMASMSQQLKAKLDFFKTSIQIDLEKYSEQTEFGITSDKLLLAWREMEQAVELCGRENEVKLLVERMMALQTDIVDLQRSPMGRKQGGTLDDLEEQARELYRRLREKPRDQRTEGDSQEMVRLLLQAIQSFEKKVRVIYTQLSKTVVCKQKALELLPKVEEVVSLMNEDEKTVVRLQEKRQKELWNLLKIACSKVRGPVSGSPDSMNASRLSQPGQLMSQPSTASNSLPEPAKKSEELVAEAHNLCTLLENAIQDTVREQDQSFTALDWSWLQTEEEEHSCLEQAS
T1 sequence (O15111 whole entry): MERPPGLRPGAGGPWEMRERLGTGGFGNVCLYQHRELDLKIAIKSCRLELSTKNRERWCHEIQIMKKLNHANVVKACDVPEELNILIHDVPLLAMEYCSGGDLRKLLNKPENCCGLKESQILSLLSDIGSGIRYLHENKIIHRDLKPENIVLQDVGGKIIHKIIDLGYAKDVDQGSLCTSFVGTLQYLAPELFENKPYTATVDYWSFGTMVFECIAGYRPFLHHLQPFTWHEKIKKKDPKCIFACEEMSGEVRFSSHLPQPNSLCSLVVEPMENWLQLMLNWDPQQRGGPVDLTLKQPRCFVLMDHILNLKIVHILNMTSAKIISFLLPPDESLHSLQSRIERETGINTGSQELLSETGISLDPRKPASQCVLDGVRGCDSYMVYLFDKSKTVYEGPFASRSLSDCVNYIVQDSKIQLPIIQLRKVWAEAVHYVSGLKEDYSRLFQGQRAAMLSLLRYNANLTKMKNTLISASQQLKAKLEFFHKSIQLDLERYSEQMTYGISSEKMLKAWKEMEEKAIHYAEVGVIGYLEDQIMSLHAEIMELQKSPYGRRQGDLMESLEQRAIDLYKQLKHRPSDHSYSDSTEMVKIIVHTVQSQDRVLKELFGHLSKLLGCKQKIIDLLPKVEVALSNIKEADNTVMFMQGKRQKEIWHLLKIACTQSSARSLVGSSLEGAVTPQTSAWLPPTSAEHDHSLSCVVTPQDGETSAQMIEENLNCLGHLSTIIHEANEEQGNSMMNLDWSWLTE
T1 sequence (Q9Y6K9 whole entry partner): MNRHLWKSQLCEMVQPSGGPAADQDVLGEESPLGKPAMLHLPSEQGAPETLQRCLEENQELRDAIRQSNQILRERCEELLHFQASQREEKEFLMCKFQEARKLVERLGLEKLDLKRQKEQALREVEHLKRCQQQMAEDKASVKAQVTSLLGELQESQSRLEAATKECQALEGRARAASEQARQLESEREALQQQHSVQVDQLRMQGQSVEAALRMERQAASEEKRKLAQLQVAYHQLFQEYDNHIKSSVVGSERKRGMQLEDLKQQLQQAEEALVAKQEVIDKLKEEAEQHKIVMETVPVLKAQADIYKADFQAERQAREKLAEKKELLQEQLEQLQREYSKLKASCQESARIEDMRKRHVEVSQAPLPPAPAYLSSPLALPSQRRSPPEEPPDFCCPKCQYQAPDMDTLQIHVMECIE

[1] = target: T2, cAMP-dependent protein kinase (PKA) (Homo sapiens, UniProt P17612); assay: PKA kinase test (Upstate Biotechnology kit); type: biochemical; conditions: substance concentration of 100 μM; ATP 50 μM
T2 construct: purchased Upstate Biotechnology
Description: (§1) cAMP-dependent protein kinase (PKA), protein kinase C (PKC), and casein kinase II (CK II) were determined using the appropriate test kits of Upstate Biotechnology according to the procedure of the manufacturer at an ATP concentration of 50 μM. Differently, no phosphocellulose filter, but MultiScreen plates (Millipore; phosphocellulose MS-PH, cat. MAPHNOB10) with the corresponding aspiration system were used. The plates or membranes (IκB kinase) were then measured in a Wallac Microβeta scintillation counter. 100 μM of the test substance were employed in each case.
(§2) Each substance was tested in a duplicate determination. The mean value of the blank (without enzyme) is subtracted from the mean values (enzyme with and without substances) and the % inhibition is calculated. IC50 calculations were carried out using the software package GraFit 3.0.

protein kinase C (PKC) = assay: PKC kinase test (Upstate Biotechnology kit); type: biochemical; conditions: substance concentration of 100 μM; ATP 50 μM
Description: as §1, §2

casein kinase II (CK II) = target: T3, casein kinase II (CK II) (Homo sapiens, UniProt P68400); assay: CK II kinase test (Upstate Biotechnology kit); type: biochemical; conditions: substance concentration of 100 μM; ATP 50 μM
T3 construct: purchased Upstate Biotechnology
T3 sequence (P68400 whole entry): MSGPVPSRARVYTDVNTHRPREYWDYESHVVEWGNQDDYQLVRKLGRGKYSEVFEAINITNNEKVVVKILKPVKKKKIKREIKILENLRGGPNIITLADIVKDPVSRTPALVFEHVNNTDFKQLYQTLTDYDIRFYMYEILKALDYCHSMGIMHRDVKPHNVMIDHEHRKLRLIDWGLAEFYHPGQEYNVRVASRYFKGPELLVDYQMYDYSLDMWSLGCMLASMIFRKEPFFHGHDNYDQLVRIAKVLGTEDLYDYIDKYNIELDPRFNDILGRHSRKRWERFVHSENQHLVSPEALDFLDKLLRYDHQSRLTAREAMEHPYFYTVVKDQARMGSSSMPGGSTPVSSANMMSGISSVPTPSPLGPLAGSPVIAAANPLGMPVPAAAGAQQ
T3 sequence (P67870 whole entry partner): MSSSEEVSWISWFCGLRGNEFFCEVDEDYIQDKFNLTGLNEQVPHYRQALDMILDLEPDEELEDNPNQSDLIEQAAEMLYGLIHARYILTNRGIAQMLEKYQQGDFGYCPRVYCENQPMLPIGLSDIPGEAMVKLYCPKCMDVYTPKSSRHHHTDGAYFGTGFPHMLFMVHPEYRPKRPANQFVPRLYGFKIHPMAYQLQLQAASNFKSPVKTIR
Description: as §1, §2

| IC50 (IκB kinase) | inhibition at 100 µM [1] | PKC % inhibition (protein kinase C (PKC)) | inhibition at 100 µM (casein kinase II (CK II)) | melting point | Compound |
| --- | --- | --- | --- | --- | --- |
| 25 µM | 0% | 16% | 19% |  | O=C(N[C@@H](Cc1ccc(F)cc1F)C(=O)O)c1ccc2nc(-c3ccncc3)[nH]c2c1 [Example 5] |
| 0.36 µM |  |  |  |  | CNC(=O)Nc1nnc([C@H](CCc2ccccc2)NC(=O)c2ccc3[nH]c(-c4ccncc4)nc3c2)o1 [Example 192, 2-pyridin-4-yl-1H-benzimidazole-5-carboxylic acid {1-[5-(3-methylureido)-[1,3,4]oxadiazol-2-yl]-3-phenylpropyl}amide] |
| 16 µM |  |  |  |  | NC(=O)[C@H](Cc1cccs1)NC(=O)c1cccc2nc(-c3ccncc3)[nH]c12 [Example 34] |
| 1 µM | 36% | 63% | 70% |  | NC(=O)[C@H](Cc1ccc2ccccc2n1)NC(=O)c1ccc2nc(-c3ccncc3)[nH]c2c1 [Example 19] |
| 0.12 µM |  |  |  | 220 °C (dec.) | O=C(N[C@@H](CCc1ccccc1)c1nnc(NS(=O)(=O)c2ccccc2)o1)c1ccc2[nH]c(-c3ccncc3)nc2c1 [Example 191] |
|  |  |  |  | ~ 258 °C (dec.) | CCN(C[C@H](NC(=O)c1ccc2[nH]c(-c3ccncc3)nc2c1)C(=O)O)c1ccccc1 (as salt: trifluoroacetate) [Example 195, 3-Phenylaminoethyl-2-[(2-pyridin-4-yl-1H-benzimidazole-5-carbonyl)-amino]propionic acid trifluoroacetate] |
| 1 µM | 0% | 13% | 92% |  | CSCC[C@H](NC(=O)c1ccc2[nH]c(-c3ccncc3)nc2c1)C(N)=O [Example 107] |
| 4 µM | 0% | 9% | 7% |  | NC(=O)[C@H](Cc1cccc(C(F)(F)F)c1)NC(=O)c1ccc2nc(-c3ccncc3)[nH]c2c1 [Example 8] |
| 72 µM | 0% | 46% | 14% |  | O=C(N[C@H](Cc1ccc(Cl)cc1)C(=O)O)c1ccc2nc(-c3ccncc3)[nH]c2c1 [Example 6] |
| 9 µM | 0% | 11% | 4% |  | N#Cc1ccc(C[C@H](NC(=O)c2ccc3nc(-c4ccncc4)[nH]c3c2)C(N)=O)cc1 [Example 16] |
| 36 µM |  |  |  |  | NC(=O)[C@H](CC1CC1)NC(=O)c1cccc2nc(-c3ccncc3)[nH]c12 [Example 36] |
| 0.43 µM |  |  |  | 160 °C (dec.) | Nc1nnc([C@H](CCc2ccccc2)NC(=O)c2ccc3[nH]c(-c4ccncc4)nc3c2)o1 [Example 179, 2-pyridin4-yl-1H-benzimidazole-5-carboxylic acid [1-(5-amino-[1,3,4]oxadiazol-2-yl)-3-phenylpropyl]amide] |
| 7 µM | 0% | 0% | 0% |  | NC(=O)[C@H](Cc1ccc(C(=O)O)cc1)NC(=O)c1ccc2nc(-c3ccncc3)[nH]c2c1 [Example 14] |
| 22 µM | 0% | 15% | 10% |  | O=C(N[C@@H](Cc1ccc(F)cc1)C(=O)O)c1ccc2nc(-c3ccncc3)[nH]c2c1 [Example 7] |
| 25 µM | 24% | 7% | 17% |  | CC(C)(C)c1ccccc1SC[C@H](NC(=O)c1ccc2[nH]c(-c3ccncc3)nc2c1)C(=O)O [Example 112] |
| 34 µM | 26% | 31% | 60% |  | NC(=O)[C@H](Cc1cc(Br)c(O)c(Br)c1)NC(=O)c1ccc2nc(-c3ccncc3)[nH]c2c1 [Example 20] |
| 42 µM | 0% | 16% | 0% |  | NC(=O)[C@H](Cc1cccnc1)NC(=O)c1ccc2nc(-c3ccncc3)[nH]c2c1 [Example 12] |
| 7 µM | 0% | 16% | 0% |  | NC(=O)[C@H](Cc1cccs1)NC(=O)c1ccc2nc(-c3ccncc3)[nH]c2c1 [Example 11] |
| 0.62 µM |  |  |  | 103 °C (dec.) | O=C(N[C@@H](CCc1ccccc1)c1nnco1)c1ccc2[nH]c(-c3ccncc3)nc2c1 [Example 180, 2-pyridin-4-yl-1H-benzimidazole-5-carboxylic acid (1-[1,3,4]oxadiazol-2-yl-3-phenylpropyl)amide] |
